Experimental data: ChEMBL document CHEMBL3044634, “Synthesis and evaluation of antibacterial and antifungal activities of new (Z)-3-bromo-4-(1,3-diaryl-1H-pyrazol-4-yl)but-3-en-2-ones and 4-(3-methyl-1-phenyl-1H-pyrazol-5-yl)-1,3-diaryl-1H-pyrazoles” (2013)
Values after ≈ are worked out from the molar mass of the structure shown. Active and inactive are the calls of the source. No cut-off for these calls is given here.

Tests used:
Escherichia coli = assay: Antibacterial activity against Escherichia coli MTCC 1652 at 2 mg/ml after 24 hr by agar well diffusion method; type: functional, organism-based
Staphylococcus aureus [1] = assay: Antibacterial activity against Staphylococcus aureus MTCC 96 at 2 mg/ml after 24 hr by agar well diffusion method; type: functional; details: MTCC 96, 24 h, read-out: DIZ
Bacillus subtilis [2] = assay: Antibacterial activity against Bacillus subtilis MTCC 121 at 2 mg/ml after 24 hr by agar well diffusion method; type: functional; details: MTCC 121, 24 h, read-out: DIZ
Bacillus subtilis [3] = assay: Antibacterial activity against Bacillus subtilis MTCC 121 after 24 hr by macrodilution tube method; type: functional; details: MTCC 121, 24 h
Aspergillus niger = assay: Growth inhibition of Aspergillus niger at 4 mg/ml after 7 days by poisoned-food technique; type: functional; details: 168 h, read-out: GI
Staphylococcus aureus [4] = assay: Antibacterial activity against Staphylococcus aureus MTCC 96 after 24 hr by macrodilution tube method; type: functional; details: MTCC 96, 24 h
Aspergillus flavus = assay: Growth inhibition of Aspergillus flavus at 4 mg/ml after 7 days by poisoned-food technique; type: functional; details: 168 h, read-out: GI
Pseudomonas aeruginosa = assay: microbe, parasite or virus in culture; details: MTCC 741, 24 h, read-out: DIZ
Description: Antibacterial activity against Pseudomonas aeruginosa MTCC 741 at 2 mg/ml after 24 hr by agar well diffusion method

Row | Structure (SMILES) | Activity (Escherichia coli) | zone of inhibition at 2000 µg/mL (Staphylococcus aureus [1]) | zone of inhibition at 2000 µg/mL (Bacillus subtilis [2]) | MIC (Bacillus subtilis [3]) | inhibition of growth at 4000 µg/mL (Aspergillus niger) | MIC (Staphylococcus aureus [4]) | inhibition of growth at 4000 µg/mL (Aspergillus flavus) | zone of inhibition at 2000 µg/mL (Pseudomonas aeruginosa)
1 | CC(=O)/C(Br)=C/c1cn(-c2ccccc2)nc1-c1ccc(C)cc1 | inactive | 18.3 mm | 17 mm | 128 µg/mL (≈ 336 µM) | 51.1% | 64 µg/mL (≈ 168 µM) | 52.2% | 
2 | COc1ccc(-c2nn(-c3ccc([N+](=O)[O-])cc3)cc2/C=C(\Br)C(C)=O)cc1 | inactive | 15.6 mm | 16 mm | 128 µg/mL (≈ 289 µM) | 45.5% | 128 µg/mL (≈ 289 µM) | 50% | 
3 | Cc1cc(-c2cn(-c3ccc([N+](=O)[O-])cc3)nc2-c2ccc(F)cc2)n(-c2ccccc2)n1 | inactive | 13.6 mm | 15.6 mm | 128 µg/mL (≈ 291 µM) | 44.4% | 256 µg/mL (≈ 583 µM) | 47.7% | 
4 | Cc1cc(-c2cn(-c3ccccc3)nc2-c2ccc(F)cc2)n(-c2ccccc2)n1 | inactive | 15 mm | 16.3 mm | 128 µg/mL (≈ 325 µM) | 43.3% | 128 µg/mL (≈ 325 µM) | 44.4% | 
5 | COc1ccc(-c2nn(-c3ccccc3)cc2/C=C(\Br)C(C)=O)cc1 | inactive | 15.6 mm | 16.3 mm | 128 µg/mL (≈ 322 µM) | 45.5% | 128 µg/mL (≈ 322 µM) | 44.4% | 
6 | CC(=O)/C(Br)=C/c1cn(-c2ccccc2)nc1-c1ccc(Cl)cc1 | inactive | 14.6 mm | 16.3 mm | 128 µg/mL (≈ 319 µM) | 50% | 256 µg/mL (≈ 637 µM) | 45.5% | 
7 | CC(=O)/C(Br)=C/c1cn(-c2ccccc2)nc1-c1ccc(Br)cc1 | inactive | 21.3 mm | 19.3 mm | 64 µg/mL (≈ 143 µM) | 55.5% | 32 µg/mL (≈ 71.7 µM) | 58.8% | 
8 | Cc1cc(-c2cn(-c3ccccc3)nc2-c2ccc([N+](=O)[O-])cc2)n(-c2ccccc2)n1 | inactive | 17.6 mm | 18.6 mm | 64 µg/mL (≈ 152 µM) | 51.1% | 64 µg/mL (≈ 152 µM) | 53.3% | 
9 | CC(=O)/C(Br)=C/c1cn(-c2ccccc2)nc1-c1ccccc1 | inactive | 15.3 mm | 16.6 mm | 128 µg/mL (≈ 349 µM) | 51.1% | 128 µg/mL (≈ 349 µM) | 48.8% | 
10 | OC(Cn1cncn1)(Cn1cncn1)c1ccc(F)cc1F [FLUCONAZOLE] |  |  |  |  | 81.1% |  | 77.7% | 
11 | CC(=O)/C(Br)=C/c1cn(-c2ccccc2)nc1-c1ccc(F)cc1 | inactive | 20.6 mm | 21.6 mm | 32 µg/mL (≈ 83.1 µM) | 53.3% | 32 µg/mL (≈ 83.1 µM) | 55.5% | 
12 | Cc1cc(-c2cn(-c3ccccc3)nc2-c2ccccc2)n(-c2ccccc2)n1 | inactive | 16.3 mm | 15.6 mm | 128 µg/mL (≈ 340 µM) | 44.4% | 128 µg/mL (≈ 340 µM) | 46.6% | 
13 | O=C(O)c1cn(C2CC2)c2cc(N3CCNCC3)c(F)cc2c1=O [CIPROFLOXACIN] |  | 26 mm | 24 mm | 5 µg/mL (≈ 15.1 µM) |  | 5 µg/mL (≈ 15.1 µM) |  | 25.3 mm
14 | CC(=O)/C(Br)=C/c1cn(-c2ccc([N+](=O)[O-])cc2)nc1-c1ccccc1 | inactive | 19.3 mm | 17.3 mm | 128 µg/mL (≈ 310 µM) | 51.1% | 64 µg/mL (≈ 155 µM) | 53.3% | 
15 | CC(=O)/C(Br)=C/c1cn(-c2ccc([N+](=O)[O-])cc2)nc1-c1ccc(F)cc1 | inactive | 16.6 mm | 17.3 mm | 128 µg/mL (≈ 298 µM) | 48.8% | 128 µg/mL (≈ 298 µM) | 50% | 
16 | Cc1cc(-c2cn(-c3ccc([N+](=O)[O-])cc3)nc2-c2ccccc2)n(-c2ccccc2)n1 | inactive | 13.6 mm | 14.3 mm | 256 µg/mL (≈ 607 µM) | 43.3% | 256 µg/mL (≈ 607 µM) | 45.5% | 
17 | Cc1ccc(-c2nn(-c3ccccc3)cc2-c2cc(C)nn2-c2ccccc2)cc1 | inactive | 14.6 mm | 16.3 mm | 128 µg/mL (≈ 328 µM) | 44.4% | 256 µg/mL (≈ 656 µM) | 45.5% | 
18 | CC(=O)/C(Br)=C/c1cn(-c2ccccc2)nc1-c1ccc([N+](=O)[O-])cc1 | inactive | 16 mm | 17.6 mm | 128 µg/mL (≈ 310 µM) | 48.8% | 128 µg/mL (≈ 310 µM) | 52.2% | 
19 | COc1ccc(-c2nn(-c3ccc([N+](=O)[O-])cc3)cc2-c2cc(C)nn2-c2ccccc2)cc1 | inactive | 15.3 mm | 14 mm | 128 µg/mL (≈ 284 µM) | 46.6% | 256 µg/mL (≈ 567 µM) | 44.4% | 
20 | Cc1cc(-c2cn(-c3ccccc3)nc2-c2ccc(Cl)cc2)n(-c2ccccc2)n1 | inactive | 14.3 mm | 16.3 mm | 128 µg/mL (≈ 312 µM) | 48.8% | 256 µg/mL (≈ 623 µM) | 51.1% | 
21 | Cc1cc(-c2cn(-c3ccccc3)nc2-c2ccc(Br)cc2)n(-c2ccccc2)n1 | inactive | 19.3 mm | 20.6 mm | 32 µg/mL (≈ 70.3 µM) | 55.5% | 64 µg/mL (≈ 141 µM) | 52.2% | 
22 | COc1ccc(-c2nn(-c3ccccc3)cc2-c2cc(C)nn2-c2ccccc2)cc1 | inactive | 15.3 mm | 14 mm | 256 µg/mL (≈ 630 µM) | 41.1% | 128 µg/mL (≈ 315 µM) | 44.4% | 
